In general, EC50 refers to the concentration that produces a half-maximal response. What is called IC50 is the concentration needed to halve the response being measured.

SMILES strings stand for the structures. Counter-ions that a name gives are not always drawn. Like-named read-outs stand apart in the source and are kept apart here.

Data set [1] deals with P. falciparum Dd2-HLH. Kind of data set: microbe, parasite or virus in culture. It is filed as cell-based, Plasmodium falciparum. The settings on record: read-out: Blood stage 48h EC50.
Data set [2] concerns P. falciparum Dd2-HLH. Kind of data set: microbe, parasite or virus in culture. It counts as cell-based, Plasmodium falciparum. The settings on record: read-out: Blood stage 72h EC50.
Data set [3] concerns the target P. berghei-luciferase sporozoites. Nature of the data set: microbe, parasite or virus in culture. It is filed as cell-based, Plasmodium berghei. The settings on record: liver-stage parasites, 48 hours in culture, read-out: Liver stage 48h EC50.
Data set [4] has as its system HepG2 cells. Nature of the data set: Mammalian cell cytotoxicity assay, HepG2 (CellTiter-Glo, 72 h). The settings on record: read-out: HEP CC50. For orientation: ATP-based viability assays read luminescence as a measure of living cells.
For data set [5], the system named is HEK293T cells. Kind of data set: Mammalian cell cytotoxicity assay, HEK293T (CellTiter-Glo, 72 h). The settings on record: read-out: HEK CC50.
The nature of data set [6]: in vitro. The settings on record: human.
A short description of data set [7]: in vitro. The settings on record: human. This is another data set of the same source.
For data set [8], the system named is P. falciparum blood-stage. Also on record: method as in PMID 28874661. The settings on record: read-out: EC50 against P. falciparum blood-stage growth in vitro; cited from earlier work.
For data set [9], the system named is PfPKG. The settings on record: read-out: IC50 in PfPKG kinase assays; cited from earlier work.
Data set [10] concerns P. falciparum (NF54 drug-sensitive strain). On the set-up: method as in PMID 28446690. The settings on record: read-out: EC50 against intraerythrocytic lifecycle stages of P. falciparum; cited from earlier work.
[11] abbreviates: P. falciparum blood-stage parasites, 48 hours in culture.
The mark [12] stands for this setting: P. falciparum blood-stage parasites, 72 hours in culture.

Turning to `CCCC1(CCC)CCC2(CCN(CCCN(CC)CC)C2)CC1` [Atiprimod dimaleate], the results for the concentration giving a half-maximal response (EC50) in data set [1] (setting [11]), in [2] (setting [12]) and in data set [3] were 43 nM, 430 nM and 7330 nM, respectively. Besides, the CC50 in [4] (HepG2 cells) is 2990 nM; in [5] (HEK293T cells), 1720 nM.

Regarding `CCN(CCO)CCCOc1ccc2c(Nc3cc(CC(=O)Nc4cccc(F)c4)n[nH]3)ncnc2c1` [Barasertib-HQPA], the EC50 in data set [1] (Plasmodium falciparum, DD2, 48 h) came to 253 nM; in [2] (Plasmodium falciparum, DD2, 72 h), 539 nM; in [3] (Plasmodium berghei, HepG2), 4620 nM. Besides, the CC50 in [6] was greater than 9950 nM; in data set [7] it was greater than 9990 nM.

`CCC(CC)Nc1cc(C)nc(Oc2c(C)cc(C)cc2C)c1C` [CP-376395]: the EC50 in data set [1] (setting [11]) came out at 835 nM; in [2] (setting [12]), 884 nM; in data set [3], 6260 nM. Moreover, the CC50 was 2500 nM in data set [4] (HepG2 cells) and greater than 9950 nM in [5] (HEK293T cells).

As to `Oc1ccc(CCN2CCC(Nc3nc4ccccc4n3Cc3ccc(F)cc3)CC2)cc1` [Desmethylastemizole], the half-maximal effective concentration (EC50) in [1] (setting [11]) is 23 nM; in data set [2] (setting [12]), 47 nM; in data set [3], 70 nM. Besides, the CC50 in data set [4] (HepG2 cytotoxicity) was 58 nM; in [5] (HEK293T cytotoxicity), 5920 nM.

As for `Cc1cn2c(-c3ccnc(NCC4CC4)n3)c(-c3ccc(F)c(NS(C)(=O)=O)c3)nc2cc1CN(C)C` [ML10], in data set [8], the EC50 is 2.1 nM. Moreover, the concentration for half-maximal inhibition (IC50) in [9] is 0.16 nM.

`CS(=O)(=O)c1ccc(-c2cnc(N)c(-c3ccc(C(F)(F)F)nc3)c2)cc1` [MMV390048]: in [10], the half-maximal effective concentration (EC50) was 28 nM.

Turning to `O=C(CC1c2ccccc2C(=O)N1c1ccc2ccc(Cl)nc2n1)N1CCC2(CC1)OCCO2` (centres unmarked) [Pazinaclone], the EC50 in data set [1] (setting [11]) was 77 nM; in [2] (setting [12]), 427 nM; in data set [3] it was greater than 10000 nM. In addition, the CC50 in data set [4] (HepG2 cells) and in [5] (HEK293T cells) was greater than 9950 nM in each case.

Regarding `CN(C)CCNc1nc2cc(O)ccc2c2c1C(=O)c1ccccc1-2` [TAS-103], the EC50 in [1] (setting [11]) worked out at 574 nM; in data set [2] (setting [12]) it was 756 nM; in data set [3], 1500 nM. The results for the CC50 in [4] (HepG2 cytotoxicity) and in data set [5] (HEK293T cytotoxicity) were 766 nM and 334 nM, respectively.

As for `Cc1cc(-c2cc(O)ccc2Cl)cc2nnc(Nc3ccc(OCCN4CCCC4)cc3)nc12` [TG 100572 (Hydrochloride)], the EC50 came out at 122 nM in data set [1] (setting [11]), 589 nM in [2] (setting [12]) and 642 nM in data set [3]. Besides, the figures for the CC50 in data set [4] (HepG2 cells) and in data set [5] (HEK293T cells) were 3440 nM and 1730 nM, respectively.

These data come from PMC11145868, “Protein target similarity is positive predictor of in vitro antipathogenic activity: a drug repurposing strategy for Plasmodium falciparum” (Journal of Cheminformatics, 2024).
